Reference: ChEMBL document CHEMBL1159361, “(Z)-sarcodictyin A, a new highly cytotoxic diterpenoid from the soft coral Bellonella albiflora” (J Nat Prod, 2003)
In brackets after ≈: the same amount, converted by molar mass.

Test system: HeLa
Experiment: Cytotoxicity against human HeLa cells
Type: functional, cell-based

## COC(=O)/C1=C/[C@@H]2[C@@H](C(C)C)CC=C(C)[C@@H]2C[C@H](OC(=O)/C=C\c2cn(C)cn2)[C@]2(C)C=C[C@@]1(O)O2
  IC50: 0.09 µg/mL (≈ 0.181 µM)

## CO[C@]12C=C[C@](C)(O1)[C@@H](OC(=O)/C=C\c1cn(C)cn1)C[C@H]1C(C)=CC[C@H](C(C)C)[C@H]1/C=C\2CO[C@@H]1OC[C@@H](O)[C@@H](O)[C@@H]1OC(C)=O
  IC50: 0.017 µg/mL (≈ 0.0259 µM)

## CO[C@]12C=C[C@](C)(O1)[C@@H](OC(=O)/C=C/c1cn(C)cn1)C[C@H]1C(C)=CC[C@H](C(C)C)[C@H]1/C=C\2CO [ELEUTHEROBIN AGLYCON]
  IC50: 0.09 µg/mL (≈ 0.186 µM)

## CO[C@]12C=C[C@](C)(O1)[C@@H](OC(=O)/C=C/c1cn(C)cn1)C[C@H]1C(C)=CC[C@H](C(C)C)[C@H]1/C=C\2CO[C@@H]1OC[C@@H](O)[C@@H](O)[C@@H]1OC(C)=O [ELEUTHEROBIN]
  IC50: 0.017 µg/mL (≈ 0.0259 µM)

## CCOC(=O)/C1=C/[C@@H]2[C@@H](C(C)C)CC=C(C)[C@@H]2C[C@H](OC(=O)/C=C/c2cn(C)cn2)[C@]2(C)C=C[C@@]1(O)O2 [SARCODICTYIN B]
  IC50: 0.09 µg/mL (≈ 0.176 µM)
